Data: patent publication EP0354042A2, “Aminobenzoic-acid derivatives to reduce side effects induced by an administration of immuno-suppressant” (priority 1988, dated 1990)

Assays:
Jcl:ICR mice = assay: Acute toxicity (LD50, Litchfield-Wilcoxon); type: in vivo; settings: observed 7 days; for LD₅₀ Value Intraperitoneal: in physiological saline solution; for LD₅₀ Value Oral: oral by stomach sonde, in distilled water
Experimental: The acute toxicity was studied with Jcl:ICR mice through intraperitoneal route and oral route. For intraperitoneal route, the present substance was dissolved in a physiological saline solution and a predetermined dose of the substance was administered with an injector to the cavity. For oral route, the present substance was dissolved in a distilled water and administered forcibly through a stomach sonde.
After the administration, observation of toxicopathic symptoms of the mice were continued for 7 days and based on time to time death rates of the mice, LD₅₀ values were calculated. Both surviving and dead mice were anatomized and observed certain organs.

[1] = test system: TA98 of Salmonella typhimurium; assay: Reversion assay (reversion colony test) TA98; type: cell-based; settings: 5,000 µg/disk, 37°C for 2 days; Drug-free Control 13
Experimental: (§1) In addition, a reversion assay was performed using TA98 and TA100 of Salmonella typhimurium (both are histidine-requiring bacteria).
(§2) 10% by volume of 0.5 mM bithion solution containing 0.5 mM histidine was added to a soft agar solution (prepared with 6g of NaCl, 6g of agar and 1,000 ml of distilled water). Then, 0.1 ml of a solution containing 1 x 10⁸ of the bacteria and 0.1 ml of a solution of the present substance were added to 2 ml of the soft agar solution, mixed well and obtained soft agar solution was multilayered on a minimal agar medium. The medium layered was cultured at 37°C for 2 days and number of reversion colonies was counted. Furylfuramide (AF2) was used as a positive control.

Wistar male rats [2] = assay: Kidney function (inulin clearance, serum creatinine) of rats given CsA with the present substance; type: in vivo; settings: CsA 25 mg/kg/day i.p. 3 weeks plus present substance 300 mg/kg/day orally
Experimental: (§3) Various clearance tests and a saccharide tolerance test were performed after completion of the administrations. Then, after sacrificing the rats, their blood was taken for serum biochemical and general blood tests.

[3] = Body weight of rats given CsA with the present substance; type: in vivo, Wistar male rats; settings: at completion of the test; CsA 25 mg/kg/day i.p. 3 weeks plus present substance 300 mg/kg/day orally
Experimental: as §3

Wistar male rats [4] = assay: Serum biochemical test, total bilirubin (liver function) of rats given CsA with the present substance; type: in vivo; settings: CsA 25 mg/kg/day i.p. 3 weeks plus present substance 300 mg/kg/day orally
Experimental: as §3

Wistar male rats [5] = assay: Saccharide tolerance test (pancreas function) of rats given CsA with the present substance; type: in vivo; settings: CsA 25 mg/kg/day i.p. 3 weeks plus present substance 300 mg/kg/day orally
Experimental: as §3

Bacillus subtilis M45 = assay: Mutagenicity Rec-assay, recombination repair deficient strain; settings: for Growth Inhibited Area M45: 16 hours at 37°C; for Growth Inhibited Area M45 - H17: difference between strains
Experimental: (§4) First, mutagenecity was studied with Rec-assay. […] The present substance was dissolved with sterlized water, 0.05 ml of the solution was absorbed by a round filter paper having a diameter of 8 mm and immediately the filter paper was laid on the medium (B-II agar) in a manner to cover each of the satrt point of the streak. Then, the mdium was cultured for 16 hours at a temperature of 37°C and measured growth inhibited area. Kanamycin was used as a negative control and mitomycin as a positive control.

[6] = test system: TA100 of Salmonella typhimurium; assay: Reversion assay (reversion colony test) TA100; type: cell-based; settings: 5,000 µg/disk, 37°C for 2 days; Drug-free Control 149
Experimental: as §1, §2

Bacillus subtilis H17 = assay: Mutagenicity Rec-assay, recombination repair proficient strain; settings: 16 hours at 37°C
Experimental: as §4

human lymphocyte = assay: Mixed lymphocyte culture, 3H-thymidine uptake (proliferation of lymphocytes); type: cell-based; settings: CsA 0.1 µg/ml plus present substance 100 µg/ml, cultured 6 days;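 also: percent suppression of proliferation derived from uptake with CsA alone versus CsA plus substance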
Experimental: A mixture of 50 µl of human lymphocyte (1.6 x 10⁶/ml) with 50 µl of the lymphocytes treated with mitomycin C (MMC) (1.7 x 10⁶/ml) was cultured for 6 days and an uptake of ³H-thymidine, an index of proliferation of lymphocyte, was studied. The medium used for culture comprised bovine fetal serum (10% in quantity) and RPMI 1640 (90% in quantity). […] From the calculated ratio, the effects of the present substance on immuno function were studied.

Compound: C[C@@H]1OC(Nc2ccc(C(=O)O)cc2)[C@H](O)[C@H](O)[C@H]1O (stereo partly drawn) [Compound 18, p-Aminobenzoic acid-N-L-rhamnoside]
- LD₅₀ Value Intraperitoneal (Jcl:ICR mice): 15000 mg/kg
- LD₅₀ Value Oral (Jcl:ICR mice): 12800 mg/kg
- No. of Reversion Colony TA98 [1]: 4 n/plate
- Kidney Function Inulin Clearance (Wistar male rats [2]): 1.97 mL/min
- Kidney Function Serum Creatinine (Wistar male rats [2]): 0.64 mg/dL
- Body Weight [3]: 238 g
- TBI (seerum total bilirubin value) (Wistar male rats [4]): 0.29 mg/dL
- Blood sugar value measured 10 minutes after the test (Wistar male rats [5]): 573 mg/dL
- Insuline Value 10 Min.After The Test (Wistar male rats [5]): 6.44 mµ/ml
- Insuline Value Before The Test (Wistar male rats [5]): 4.30 mµ/ml
- Growth Inhibited Area M45 (Bacillus subtilis M45; 500 µg/disk): 0 mm
- Growth Inhibited Area M45 - H17 (Bacillus subtilis M45; 500 µg/disk): 0 mm
- Growth Inhibited Area M45 (Bacillus subtilis M45; 5,000 µg/disk): 0 mm
- Growth Inhibited Area M45 - H17 (Bacillus subtilis M45; 5,000 µg/disk): 0 mm
- No. of Reversion Colony TA100 [6]: 73 n/plate
- Growth Inhibited Area H17 (Bacillus subtilis H17; 500 µg/disk): 0 mm
- Growth Inhibited Area H17 (Bacillus subtilis H17; 5,000 µg/disk): 0 mm
- Depressing Ratio (human lymphocyte): 27%

Compound: CC1OC(Nc2ccccc2C(=O)[O-])C(O)C(O)C1O.[Na+] [Compound 20, o-Aminobenzoic acid-N-L-rhamnoside]
- LD₅₀ Value Intraperitoneal (Jcl:ICR mice): > 15000 mg/kg
- LD₅₀ Value Oral (Jcl:ICR mice): 12500 mg/kg
- No. of Reversion Colony TA98 [1]: 9 n/plate
- Kidney Function Inulin Clearance (Wistar male rats [2]): 1.95 mL/min
- Kidney Function Serum Creatinine (Wistar male rats [2]): 0.64 mg/dL
- Body Weight [3]: 233 g
- TBI (seerum total bilirubin value) (Wistar male rats [4]): 0.31 mg/dL
- Blood sugar value measured 10 minutes after the test (Wistar male rats [5]): 576 mg/dL
- Insuline Value 10 Min.After The Test (Wistar male rats [5]): 6.38 mµ/ml
- Insuline Value Before The Test (Wistar male rats [5]): 4.34 mµ/ml
- Growth Inhibited Area M45 (Bacillus subtilis M45; 500 µg/disk): 0 mm
- Growth Inhibited Area M45 - H17 (Bacillus subtilis M45; 500 µg/disk): 0 mm
- Growth Inhibited Area M45 (Bacillus subtilis M45; 5,000 µg/disk): 6 mm
- Growth Inhibited Area M45 - H17 (Bacillus subtilis M45; 5,000 µg/disk): 4 mm
- No. of Reversion Colony TA100 [6]: 61 n/plate
- Growth Inhibited Area H17 (Bacillus subtilis H17; 500 µg/disk): 0 mm
- Growth Inhibited Area H17 (Bacillus subtilis H17; 5,000 µg/disk): 2 mm
- Depressing Ratio (human lymphocyte): 26%

Compound: O=C(O)c1ccc(NC2O[C@H](CO)[C@@H](O)[C@H](O)[C@@H]2O)cc1 (stereo partly drawn) [Compound 22, p-Aminobenzoic acid-N-D-mannoside]
- LD₅₀ Value Intraperitoneal (Jcl:ICR mice): > 10000 mg/kg
- LD₅₀ Value Oral (Jcl:ICR mice): >10000 mg/kg
- No. of Reversion Colony TA98 [1]: 5 n/plate
- Kidney Function Inulin Clearance (Wistar male rats [2]): 2.05 mL/min
- Kidney Function Serum Creatinine (Wistar male rats [2]): 0.63 mg/dL
- Body Weight [3]: 245 g
- TBI (seerum total bilirubin value) (Wistar male rats [4]): 0.27 mg/dL
- Blood sugar value measured 10 minutes after the test (Wistar male rats [5]): 569 mg/dL
- Insuline Value 10 Min.After The Test (Wistar male rats [5]): 6.50 mµ/ml
- Insuline Value Before The Test (Wistar male rats [5]): 4.45 mµ/ml
- Growth Inhibited Area M45 (Bacillus subtilis M45; 500 µg/disk): 0 mm
- Growth Inhibited Area M45 - H17 (Bacillus subtilis M45; 500 µg/disk): 0 mm
- Growth Inhibited Area M45 (Bacillus subtilis M45; 5,000 µg/disk): 0 mm
- Growth Inhibited Area M45 - H17 (Bacillus subtilis M45; 5,000 µg/disk): 0 mm
- No. of Reversion Colony TA100 [6]: 138 n/plate
- Growth Inhibited Area H17 (Bacillus subtilis H17; 500 µg/disk): 0 mm
- Growth Inhibited Area H17 (Bacillus subtilis H17; 5,000 µg/disk): 0 mm
- Depressing Ratio (human lymphocyte): 28%

Compound: O=C(O)c1cccc(NC2O[C@H](CO)[C@@H](O)[C@H](O)[C@@H]2O)c1 (stereo partly drawn) [Compound 24, m-Aminobenzoic acid-N-D-mannoside]
- LD₅₀ Value Intraperitoneal (Jcl:ICR mice): > 10000 mg/kg
- LD₅₀ Value Oral (Jcl:ICR mice): > 10000 mg/kg
- No. of Reversion Colony TA98 [1]: 6 n/plate
- Kidney Function Inulin Clearance (Wistar male rats [2]): 2.00 mL/min
- Kidney Function Serum Creatinine (Wistar male rats [2]): 0.64 mg/dL
- Body Weight [3]: 240 g
- TBI (seerum total bilirubin value) (Wistar male rats [4]): 0.30 mg/dL
- Blood sugar value measured 10 minutes after the test (Wistar male rats [5]): 578 mg/dL
- Insuline Value 10 Min.After The Test (Wistar male rats [5]): 6.37 mµ/ml
- Insuline Value Before The Test (Wistar male rats [5]): 4.40 mµ/ml
- Growth Inhibited Area M45 (Bacillus subtilis M45; 500 µg/disk): 0 mm
- Growth Inhibited Area M45 - H17 (Bacillus subtilis M45; 500 µg/disk): 0 mm
- Growth Inhibited Area M45 (Bacillus subtilis M45; 5,000 µg/disk): 7 mm
- Growth Inhibited Area M45 - H17 (Bacillus subtilis M45; 5,000 µg/disk): 6 mm
- No. of Reversion Colony TA100 [6]: 90 n/plate
- Growth Inhibited Area H17 (Bacillus subtilis H17; 500 µg/disk): 0 mm
- Growth Inhibited Area H17 (Bacillus subtilis H17; 5,000 µg/disk): 1 mm
- Depressing Ratio (human lymphocyte): 27%
